Measurements: ChEMBL document CHEMBL1130937, “Stereoselective synthesis of a novel and bifunctional endothelin antagonist, IRL 3630” (Bioorg Med Chem Lett, 1998)

What was measured:
Endothelin-1 receptor = target: T1, Endothelin-1 receptor (Homo sapiens, UniProt P25101); experiment: Compound was tested for the binding affinity against Endothelin A receptor
T1 sequence (P25101 whole entry): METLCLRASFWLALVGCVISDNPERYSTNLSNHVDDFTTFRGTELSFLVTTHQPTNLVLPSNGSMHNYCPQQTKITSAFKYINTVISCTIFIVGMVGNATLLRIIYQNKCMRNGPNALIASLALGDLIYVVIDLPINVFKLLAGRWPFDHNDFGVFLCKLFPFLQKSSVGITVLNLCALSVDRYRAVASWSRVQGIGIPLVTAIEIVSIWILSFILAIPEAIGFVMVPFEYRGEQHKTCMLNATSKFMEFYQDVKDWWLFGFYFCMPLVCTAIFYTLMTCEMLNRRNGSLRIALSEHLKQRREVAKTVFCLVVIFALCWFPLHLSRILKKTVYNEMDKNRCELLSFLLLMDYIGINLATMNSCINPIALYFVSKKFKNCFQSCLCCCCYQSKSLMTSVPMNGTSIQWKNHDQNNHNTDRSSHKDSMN

[1] = target: T2, Endothelin receptor type B (Homo sapiens, UniProt P24530); experiment: Compound was tested for the binding affinity against Endothelin B receptor
T2 sequence (P24530 whole entry): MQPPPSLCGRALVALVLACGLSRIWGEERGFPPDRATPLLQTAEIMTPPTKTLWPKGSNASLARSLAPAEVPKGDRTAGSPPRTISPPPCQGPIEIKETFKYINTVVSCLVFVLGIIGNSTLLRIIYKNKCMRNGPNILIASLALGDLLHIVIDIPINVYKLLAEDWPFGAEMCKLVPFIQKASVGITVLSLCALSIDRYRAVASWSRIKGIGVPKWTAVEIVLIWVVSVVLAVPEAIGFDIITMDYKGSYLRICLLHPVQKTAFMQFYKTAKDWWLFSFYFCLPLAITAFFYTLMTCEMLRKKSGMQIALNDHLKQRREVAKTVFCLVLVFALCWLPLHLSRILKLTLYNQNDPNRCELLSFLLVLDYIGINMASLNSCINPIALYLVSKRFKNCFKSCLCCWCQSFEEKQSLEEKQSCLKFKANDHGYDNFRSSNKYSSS

Row | Structure (SMILES) | Ki (Endothelin-1 receptor) [µM] | Ki [1] [nM]
1 | CCCCS(=O)(=O)NC(=O)[C@H](NC(=O)[C@H](Cc1ccc(-c2ccno2)cc1)N(C)C(=O)c1cc(C)cc(C)c1)C(C)C | 27 | 1200
2 | CCCCS(=O)(=O)NC(=O)[C@@H](NC(=O)[C@H](Cc1ccc(-c2ccno2)cc1)N(C)C(=O)c1cc(C)cc(C)c1)C(C)C | 6.8 | 1200
3 | CCCCS(=O)(=O)NC(=O)[C@H](NC(=O)[C@@H](Cc1ccc(-c2ccno2)cc1)N(C)C(=O)c1cc(C)cc(C)c1)C(C)C | 0.85 | 24
4 | CCCCS(=O)(=O)NC(=O)[C@@H](NC(=O)[C@@H](Cc1ccc(-c2ccno2)cc1)N(C)C(=O)c1cc(C)cc(C)c1)C(C)C | 0.0015 | –
